Measurements: patent publication US9145542B2, “Method for producing aldehyde from CO2” (The Regents of the University of California, priority 2008, dated 2015)

System: S. elongatus
Experiment: tolerance of S. elongatus to isobutyraldehyde and isobutanol (growth by OD730)
Type: cell-based, Synechococcus elongatus PCC7942
Protocol: FIGS. 1P-1Q show S. elongatus tolerance to isobutyraldehyde and isobutanol. Effect of isobutyraldehyde (P) or isobutanol (Q) addition on growing cultures of S. elongatus as determined by optical density (OD730). At OD730 ˜1.0, isobutyraldehyde or isobutanol was added to the cultures at final concentration (mg/L) of: 0 (squares), 500 (circles), 750 (triangles), 1000 (diamonds) and 2500 (stars).
The tolerance of S. elongatus to isobutyraldehyde and isobutanol was also measured (FIG. 1P). […] In addition, the isobutyraldehyde tolerance level of S. elongatus is much higher than the concentration found in the culture medium during production. […] Thus, the in situ product removal system effectively avoids toxicity effects.
Wild-type S. elongatus and mutant strains were grown in a modified BG-11 medium with the following modifications: 50 mM NaHCO3 and 10 mg/l thiamine were added. For an experiment with 5% CO2 bubbling, 50 mM NaHCO3 was not added. Cyanobacterial cells were grown at 30° C. under fluorescent light (55 μE s^−1 m^−2), which was provided by eight 86-cm 20-W fluorescent tubes placed 15 cm from the cell culture. Cell growth was monitored by measuring OD730 of each culture.

| Structure (SMILES) | effect on growth (wild-type S. elongatus, the same concentration (750 mg/l) added to growing cultures, growth by OD730) | relative toxicity to the cell (S. elongatus, isobutyraldehyde compared with isobutanol) | tolerated concentration (wild-type S. elongatus, compound added to growing cultures at OD730 ~1.0, growth by OD730) |
| --- | --- | --- | --- |
| CC(C)CO [isobutanol] | growth retardation | – | – |
| CC(C)C=O [isobutyraldehyde] | – | less toxic to the cell than isobutanol | up to 750 mg/l |
